Experiments:
[1] = Micronucleus test in vivo (genotoxicity)
[2] = tested on: children with Systemic Onset Juvenile Idiopathic Arthritis; conditions: 1.5 mg/kg/day for twelve weeks; cited from earlier work
juvenile animals = experiment: Juvenile animal toxicity (development and reproductive performance); format: in vivo; conditions: 60 mg/kg/day
[3] = UDS test in vivo (genotoxicity)
[4] = Chromosomal aberration assay in vitro (genotoxicity); format: cell-based
dogs, rats and monkeys = experiment: Repeated dose toxicity studies; format: in vivo; conditions: oral daily doses up to nine consecutive months
Experimental: To date more than 500 patients (including 29 children) have been treated with Givinostat. Repeated dose toxicity studies were carried out in dogs, rats and monkeys. Oral daily doses of the drug were administered up to nine consecutive months. […] The “no adverse effect levels” (NOAEL) ranged from 10 to 25 mg/kg/day depending on the animal species and the duration of treatment.

mouse lymphoma = experiment: Mouse lymphoma assay in vitro (genotoxicity); format: cell-based

## diethyl-[6-(4-hydroxycarbamoyl-phenyl-carbamoyloxy-methyl)-naphthalen-2-yl-methyl]-ammonium chloride [Givinostat]
[1]
  genotoxic effect: No genotoxic effect
[2]
  ACR Pedi 30, 50 and 70 improvement: approximately 70%
  adverse effects: only a limited number of mild or moderate but short lasting, adverse effects
Juvenile animals
  behavioural and physical development and reproductive performance of pups: did not affect the behavioural and physical development and reproductive performance of pups
[3]
  genotoxic effect: No genotoxic effect
[4]
  genotoxic effect: No genotoxic effect
dogs, rats and monkeys
  tolerability / overt toxicity: well tolerated with no overt toxicity at high doses
Mouse lymphoma
  genotoxic effect: No genotoxic effect
